The values that follow come from patent publication US6710060B2, “4-hydroxypiperidine derivatives having antiarrhythmic activity” (Mochida Pharmaceutical Co., Ltd., priority 1999, dated 2004).

The test system of data set [1] is Electrocardiogram in Rats. The data set is described as follows: Effect on electrocardiogram in rats. The format is in vivo. As to conditions: 5 mg/kg intravenous, anesthetized rat, two minutes after administration. Here is the method:
[Effect on Electrocardiogram in Rats]
After anesthetizing with 1.5 g/kg (s.c.) of urethane, a rat was fixed on a warm plate at its supination. Polyethylene tubes for administering a test compound and for measuring the blood pressure were inserted into and fixed to the jugular vein and femoral artery, respectively. The blood pressure of the artery was measured using a pressure transducer. An electrode was attached to the animal, electrocardiograms were led by the standard lead II. The heart rate was measured by using a heart rate counter. The test compound was given by intravenous injection when the blood pressure and heat rate had been stabilized after the operation. […] Each parameter on the electrocardiogram was processed using an analysis software running on the personal computer to calculate the rate of change as compared with that before administration.

Each structure is given as a SMILES string. Structures can show the parent of a compound that is named as a salt.

As a reminder, the melting point is the temperature, or range, at which the solid turns liquid. In turn, `CC(C)Oc1ccc(N(C)CCC2(O)CCN(Cc3ccc(F)cc3)CC2)cc1` [Example 78, 1-(4-fluorophenylmethyl)-4-[2-[N-methyl-N-(4-isopropoxyphenyl)amino]ethyl]piperidin-4-ol] registered a melting point of 69.2 to 70 °C.

In turn, `CC(C)Oc1ccc(N(C)CCC2(O)CCN(Cc3ccc(C#N)cc3)CC2)cc1` [Example 79, 1-(4-cyanophenylmethyl)-4-[2-[N-methyl-N-(4-isopropoxyphenyl)amino]ethyl]piperidin-4-ol] had a melting point of 108.1 to 109.5 °C.

On to `CC(C)Oc1ccc(N(C)CCC2(O)CCN(Cc3ccc4ccccc4c3)CC2)cc1` [Example 80, 4-[2-[N-methyl-N-(4-isopropoxyphenyl)amino]ethyl]-1-(2-naphthylmethyl)piperidin-4-ol], for which the melting point is 76.2 to 76.8 °C.

Take `CC(C)Oc1ccc(N(C)CCC2(O)CCN(Cc3ccc([N+](=O)[O-])cc3)CC2)cc1` [Example 84, 4-[2-[N-methyl-N-(4-isopropoxyphenyl)amino]ethyl]-1-(4-nitrophenylmethyl)piperidin-4-ol]: the melting point lay within 62.5 to 63.1 °C.

Regarding `CC(C)Oc1ccc(N(C)CCC2(O)CCN(Cc3cccc(C(F)(F)F)c3)CC2)cc1` [Example 85, 4-[2-[N-methyl-N-(4-isopropoxyphenyl)amino]ethyl]-1-[3-(trifluoromethyl)phenylmethyl]piperidin-4-ol], the melting point is 60.8 to 61.1 °C.

In turn, `CC(C)Oc1ccc(N(C)CCC2(O)CCN(Cc3ccc(F)cc3F)CC2)cc1` [Example 87, 1-(2,4-difluorophenylmethyl)-4-[2-[N-methyl-N-(4-isopropoxyphenyl)amino]ethyl]piperidin-4-ol] gave a melting point of 77.6 to 77.9 °C.

`CC(C)Oc1ccc(N(C)CCC2(O)CCN(Cc3ccc(F)c(C(F)(F)F)c3)CC2)cc1` [Example 88, 1-[4-fluoro-3-(trifluoromethyl)phenylmethyl]-4-[2-[N-methyl-N-(4-isopropoxyphenyl)amino]ethyl]piperidin-4-ol] returned a melting point of 58.8 to 62.8 °C.

In turn, `CC(C)Oc1ccc(N(C)CCC2(O)CCN(Cc3ccc(OC(F)(F)F)cc3)CC2)cc1` [Example 89, 4-[2-[N-methyl-N-(4-isopropoxyphenyl)amino]ethyl]-1-(4-trifluoromethoxyphenylmethyl)piperidin-4-ol] yielded a melting point of 84.7 to 85.1 °C.

The compound `CC(C)Oc1ccc(N(C)CCC2(O)CCN(Cc3ccc(OC(C)C)cc3F)CC2)cc1` [Example 90, 1-(2-fluoro-4-isopropoxyphenylmethyl)-4-[2-[N-methyl-N-(4-isopropoxyphenyl)amino]ethyl]piperidin-4-ol] returned a melting point of 65.1 to 66.1 °C.

As to `CC(C)Oc1ccc(N(C)CCC2(O)CCN(Cc3ccc(Br)cc3F)CC2)cc1` [Example 93, 1-(4-bromo-2-fluorophenylmethyl)-4-[2-[N-methyl-N-(4-isopropoxyphenyl)amino]ethyl]piperidin-4-ol], the melting point was in the range of 99.8 to 100.9 °C.

Turning to `CC(C)Oc1ccc(N(C)CCC2(O)CCN(Cc3cccc(F)c3)CC2)cc1` [Example 94, 1-(3-fluorophenylmethyl)-4-[2-[N-methyl-N-(4-isopropoxyphenyl)amino]ethyl]piperidin-4-ol], the melting point was in the range of 52.5 to 54.6 °C.

Consider `CCOC(=O)c1ccc(CN2CCC(O)(CCN(C)c3ccc(OC(C)C)cc3)CC2)cc1` [Example 106, 1-[4-(ethoxycarbonyl)phenylmethyl]-4-[2-[N-methyl-N-(4-isopropoxyphenyl)amino]ethyl]piperidin-4-ol], for which the melting point lay in the range of 50.3 to 51.6 °C.

`CSc1ccc(CN2CCC(O)(CCN(C)c3ccc(OC(C)C)cc3)CC2)cc1` [Example 109, 4-[2-[N-methyl-N-(4-isopropoxyphenyl)amino]ethyl]-1-[4-(methylthio)phenylmethyl]piperidin-4-ol]: the melting point lay in the range of 66.2 to 68 °C.

As to `COC(=O)c1cccc(CN2CCC(O)(CCN(C)c3ccc(OC(C)C)cc3)CC2)c1` [Example 111, 1-[3-(methoxycarbonyl)phenylmethyl]-4-[2-[N-methyl-N-(4-isopropoxyphenyl)amino]ethyl]piperidin-4-ol], the melting point lay in the range of 53.8 to 54.7 °C.

On to `CC(C)Oc1ccc(NCCC2(O)CCN(Cc3ccc(C(F)(F)F)cc3)CC2)cc1` [Example 125, 4-[2-[N-(4-isopropoxyphenyl)amino]ethyl]-1-[4-(trifluoromethyl)phenylmethyl]piperidin-4-ol], for which the melting point lay within 152.3 to 153.1 °C.

Take `CCOc1ccc(N(C)CCC2(O)CCN(C(c3ccccc3)c3ccccc3)CC2)cc1` [Example 133, 1-diphenylmethyl-4-[2-[N-(4-ethoxyphenyl)-N-methylamino]ethyl]piperidin-4-ol]: the melting point was 94.3 to 95.8 °C.

Turning to `CC(C)Oc1ccc(NCCC2(O)CCN(C(c3ccccc3)c3ccccc3)CC2)cc1` [Example 136, 1-diphenylmethyl-4-[2-[N-(4-isopropoxyphenyl)-amino]ethyl]piperidin-4-ol], the melting point is 170 to 171.2 °C.

With `CCCCOc1ccc(N(C)CCC2(O)CCN(Cc3ccc4c(c3)OCO4)CC2)cc1` [Example 162, 4-[2-[N-(4-n-butoxyphenyl)-N-methylamino]ethyl]-1-(3,4-methylenedioxyphenylmethyl)piperidin-4-ol dihydrochloride], in data set [1], the “PQ Distance (rate of change)” value was “— (The rate of change at two minutes after administration is 15% or less as compared with that before administration.)” and the “QRS Width (rate of change)” value is listed as “— (The rate of change at two minutes after administration is 15% or less as compared with that before administration.)”.

On to `CCCCOc1ccc(N(C)CCC2(O)CCN(Cc3ccc(F)cc3)CC2)cc1` [Example 177, 4-[2-[N-(4-n-butoxyphenyl)-N-methylamino]ethyl]-1(4-fluorophenylmethyl)piperidin-4-ol dihydrochloride], for which, in data set [1], the “PQ Distance (rate of change)” value was “— (The rate of change at two minutes after administration is 15% or less as compared with that before administration.)” and the “QRS Width (rate of change)” value is on record as “— (The rate of change at two minutes after administration is 15% or less as compared with that before administration.)”.

As for `CCCCOc1ccc(N(C)CC(O)C2(O)CCN(CCc3ccc(F)cc3)CC2)cc1` (stereo not shown) [Example 196, 4-[2-[N-(4-n-butoxyphenyl)-N-methylamino]-1-hydroxyethyl]-1-[2-(4-fluorophenyl)ethyl]piperidin-4-ol dihydrochloride], in data set [1], the “PQ Distance (rate of change)” value is “— (The rate of change at two minutes after administration is 15% or less as compared with that before administration.)” and the “QRS Width (rate of change)” value is “— (The rate of change at two minutes after administration is 15% or less as compared with that before administration.)”.

As for `CCCCOc1ccc(N(C)CCC2(O)CCN(CC(O)c3ccc(F)cc3)CC2)cc1` (stereo not shown) [Example 198, 4-[2-[N-(4-n-butoxyphenyl)-N-methylamino]ethyl]-1-[2-(4-fluorophenyl)-2-hydroxyethyl]piperidin-4-ol dihydrochloride], in data set [1], the “PQ Distance (rate of change)” value is given as “— (The rate of change at two minutes after administration is 15% or less as compared with that before administration.)” and the “QRS Width (rate of change)” value is listed as “— (The rate of change at two minutes after administration is 15% or less as compared with that before administration.)”.
